Columns and labels:
[1] = system: sheep erythrocytes; assay: Hemolysis test; assay type: cell-based; conditions: 1.5 h, 37 °C; for Concentration up to which no hemolysis was caused: sheep erythrocytes; for Hemolytic effect on sheep erythrocytes: tested 2.5–1280 µM
Description: The hemolysis test was performed based on the Obłąk et al.[80] method with modification. Sheep blood (5 cm^3) was centrifuged (699 rcf, 15 min), washed several times with PBS buffer (pH 7.4), and suspended in PBS. […] The positive control was 1% SDS and the negative control was PBS. The plates were incubated for 1.5 h at 37 °C. After incubation, the plates were centrifuged (699 rcf, 15 min) and the supernatant was applied to a new titration plate. Absorbance was measured at λ = 540 nm (BioTek 800 TS Absorbance Reader). The experiment was performed in 4 repetitions.

[2] = system: C. albicans ATCC 10231; assay: Adhesion of C. albicans to glass surface; assay type: cell-based, Candida albicans; conditions: 640 µM
Description: The effect of gemini QAS on the adhesion of C. albicans ATCC 10231 was determined using a modification of the method of Obłąk et al.. […] After incubation, the culture was centrifuged (1000 rcf, 5 min), and the resulting pellet was suspended in PBS (pH 7.4) until OD = 0.8 (λ = 590 nm). • In the case of testing the polystyrene surface, 100 µl of tested gemini QAS at concentrations of 20–1280 µM was added to the wells of a 96-well titration plate, incubated for 2 h at 37 °C, rinsed with sterile distilled water, and then spotted with 100 µl of the obtained culture and incubated at 37 °C for 4 h. After this time, the culture was removed, the plates were rinsed with sterile distilled water and placed in an oven (60 °C, 20 min). Then, crystal violet (0.1%) was added to the wells of the titration plate, stained for 5 min and rinsed with sterile distilled water until all traces of violet were removed from the rinsed water. Then the washing mixture (1% SDS, 50 mmol HCl, 100% isopropanol) was added. The absorbance of the samples was read using a spectrophotometer (BioTek 800 TS Absorbance Reader) at λ = 590 nm. […] Next, the washing mixture (1% SDS, 50 mmol HCl, 100% isopropanol) was added and the absorbance of the samples was read using a spectrophotometer (BioTek 800 TS Absorbance Reader) at λ = 590 nm. […] After this time, the colonies growing on the plates were counted. […]

[3] = system: C. albicans ATCC 10231; assay: Adhesion of C. albicans to silicone surface; assay type: cell-based, Candida albicans
Description: (§1) The effect of gemini QAS on the adhesion of C. albicans ATCC 10231 was determined using a modification of the method of Obłąk et al.. […] After incubation, the culture was centrifuged (1000 rcf, 5 min), and the resulting pellet was suspended in PBS (pH 7.4) until OD = 0.8 (λ = 590 nm). • In the case of testing the polystyrene surface, 100 µl of tested gemini QAS at concentrations of 20–1280 µM was added to the wells of a 96-well titration plate, incubated for 2 h at 37 °C, rinsed with sterile distilled water, and then spotted with 100 µl of the obtained culture and incubated at 37 °C for 4 h. After this time, the culture was removed, the plates were rinsed with sterile distilled water and placed in an oven (60 °C, 20 min). Then, crystal violet (0.1%) was added to the wells of the titration plate, stained for 5 min and rinsed with sterile distilled water until all traces of violet were removed from the rinsed water. Then the washing mixture (1% SDS, 50 mmol HCl, 100% isopropanol) was added. The absorbance of the samples was read using a spectrophotometer (BioTek 800 TS Absorbance Reader) at λ = 590 nm. The positive control was the culture wells to which the tested gemini QAS were not added, and the negative control was the medium. The experiment was performed in 3 repetitions. • When the tested surface was stainless steel (round washers Ø 0.4 cm), silicone (0.5 cm long fragments of Foley catheters) or glass (1 cm^2 coverslips), the tested materials were incubated for 2 h at 37 °C with shaking (100 rpm) in the presence of the tested gemini QAS at concentrations of 80–640 µM. Then, the materials were rinsed with sterile distilled water, transferred to tubes with culture and incubated for 4 h at 37 °C with shaking (100 rpm). After incubation, the materials were rinsed with sterile distilled water. […] Next, the washing mixture (1% SDS, 50 mmol HCl, 100% isopropanol) was added and the absorbance of the samples was read using a spectrophotometer (BioTek 800 TS Absorbance Reader) at λ = 590 nm. […] After this time, the colonies growing on the plates were counted. […]

[4] = system: C. albicans ATCC 10231; assay: Adhesion of C. albicans to stainless steel surface; assay type: cell-based, Candida albicans; conditions: concentration not stated (tested 80–640 µM)
Description: as §1

[5] = system: C. albicans ATCC 10231 biofilm; assay: Biofilm viability (LIVE/DEAD, confocal microscopy); assay type: cell-based, Candida albicans; conditions: glass surface, SYTO 9 / propidium iodide
Description: The viability of the biofilm formed by C. albicans ATCC 10231 cells was determined using the Filmtracer LIVE/DEAD Biofilm Viability Kit (Invitrogen).
The C. albicans culture was incubated in YPG medium at 37 °C for 18 h. After incubation, the culture was centrifuged (1000 rcf, 5 min), and the resulting pellet was suspended in PBS (pH 7.4) to obtain an OD = 1.5 (λ = 590 nm). 100 µl of C. albicans cell suspension was placed into the wells of the chamber slide plate and incubated for 24 h at 37 °C. After this time, the culture was removed and the plate was rinsed with sterile mQ water. Then, 200 µl of selected tested surfactants in appropriate concentrations was added to each well and incubated for 4 h. After incubation, the plate was rinsed with PBS, 100 µl of the LIVE/DEAD probe was added, and it was incubated for 30 min in the dark. After this time, the probe was removed and the wells were rinsed twice with PBS. Then, 100 µl of 4% formaldehyde in PBS (pH 7.0) was added and it was incubated for 30 min in the dark. Formaldehyde was removed and the wells were rinsed twice with PBS. After peeling off the walls of the plate, a drop of 50% glycerol in PBS was placed on each field and a glass slide was placed on it. The viability of the biofilm formed by C. albicans cells was imaged using a confocal microscope. The negative control was PBS.

[6] = concentration not stated (tested 80–640 µM)

Row | SMILES | Concentration up to which no hemolysis was caused [1] [µM] | Reduction of adhesion of C. albicans cells to glass [2] | Reduction of adhesion of C. albicans cells to silicone [3, 6] | Hemolytic effect on sheep erythrocytes [1] | Hemolytic effect on sheep erythrocytes ([1]; listed as dimethylcarbonate with 12-carbon alkyl chains) | Inhibition of adhesion of C. albicans to stainless steel [4] | Impact on survival of C. albicans biofilm (membrane integrity) [5] | Reduction of adhesion of C. albicans cells to silicone ([3]; 640 µM)
1 | CCCCCCCCCCCC(=O)N(CCCN(CCC[N+](C)(C)C)C(=O)CCCCCCCCCCC)CCC[N+](C)(C)C [2xC12BrG3] | ≤ 20 | approximately 80% | – | – | – | – | – | –
2 | CCCCCCCCCCCC(=O)N(CCCN(CCC[N+](C)(C)C)C(=O)CCCCCCCCCCC)CCC[N+](C)(C)C [2xC12MeCO3G3, dimethyl{{3-[N-(3-{N-[3-(dimethylammonium)propyl]dodecylamido}propyl}dodecylamido}propyl}}ammonium dimethylcarbonate] | – | – | 80–90% | did not cause hemolysis | no hemolytic effect | approximately 60% | – | –
3 | CCCCCCCCCCCCCCCC(=O)N(CCCN(CCC[N+](C)(C)C)C(=O)CCCCCCCCCCCCCCC)CCC[N+](C)(C)C [2xC16BrG3] | ≤ 80 | – | – | – | – | approximately 60% | strong impact | –
4 | CCCCCCCCCCCCCCCC(=O)N(CCCN(CCC[N+](C)(C)C)C(=O)CCCCCCCCCCCCCCC)CCC[N+](C)(C)C [2xC16LaG3] | ≤ 40 | – | – | – | – | – | – | completely reduced the adhesion
5 | CCCCCCCCCCCCCCCC(=O)N(CCCN(CCC[N+](C)(C)C)C(=O)CCCCCCCCCCCCCCC)CCC[N+](C)(C)C [2xC16MeCO3G3, dimethyl{{3-[N-(3-{N-[3-(dimethylammonium)propyl]hexadecylamido}propyl}hexadecylamido}propyl}}ammonium dimethylcarbonate] | ≤ 80 | – | 80–90% | – | – | approximately 50% | – | –
